In patent US20220177538A1, “CO-AGONISTS AT GLP-1 AND GIP RECEPTORS SUITABLE FOR ORAL DELIVERY” (Novo Nordisk A/S, priority 2020, published 2022):
Like-named read-outs stand apart in the source and are kept apart here. Marks after values point to notes of the source that are not given here. Starred links: 1 amine or outer side, 2 acyl side, 3 side chain; linkers in the order of their positions; H or OH if unused. Non-standard residues stand in square brackets, D forms with d. Residues, ends and D or L forms follow the SMILES beside them. Groups on a side chain read outwards from the residue. *: point of attachment. C18 diacid = O=C(O)CCCCCCCCCCCCCCCCC(=O)*; γGlu = O=C(O)[C@H](CCC(=O)[*:2])N[*:1]; εLys = N[C@@H](CCCCN[*:1])C(=O)[*:2]; AEEA = NCCOCCOCC(=O)O; Aib = CC(C)(N)C(=O)O

Columns and labels:
human GIP receptor = target: T1, human GIP receptor (Homo sapiens, UniProt P48546); experiment: In vitro functional potency, CRE luciferase reporter, whole BHK cells (hGIPR); type: cell-based; conditions: BHK CRE luc2P hGIPR cells
T1 construct: expressed in transfected cells; host or cells: BHK (parent line BHKTS13), clone BHK CRE luc2P hGIPR
T1 sequence (P48546 22-466): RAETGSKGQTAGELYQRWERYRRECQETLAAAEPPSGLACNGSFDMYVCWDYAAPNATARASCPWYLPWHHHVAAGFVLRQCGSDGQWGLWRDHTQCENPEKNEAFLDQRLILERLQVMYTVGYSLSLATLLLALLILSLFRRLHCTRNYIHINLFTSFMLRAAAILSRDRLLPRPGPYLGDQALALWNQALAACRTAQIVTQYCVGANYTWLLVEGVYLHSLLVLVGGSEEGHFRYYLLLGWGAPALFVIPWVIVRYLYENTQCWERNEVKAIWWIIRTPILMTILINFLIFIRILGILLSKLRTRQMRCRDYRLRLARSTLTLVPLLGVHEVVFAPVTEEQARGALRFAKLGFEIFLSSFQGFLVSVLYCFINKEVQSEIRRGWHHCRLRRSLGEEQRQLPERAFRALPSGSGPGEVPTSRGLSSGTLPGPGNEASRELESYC
How it was run: (§1)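 BHK CRE luc2P cells stably expressing hGIPR or hGLP-1R were seeded at 5000 cells/well overnight. They were treated 3 h at 37° C with a 12-point, 3.5-fold compound series in buffer with or without HSA, and luciferase luminescence was read. Values come from log(agonist)-response regression, averaging at least two replicates.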

[1] = Pharmacokinetic study in dogs after oral dosing of tablets with SNAC; type: in vivo, Beagle dogs; conditions: dog, in vivo, po; for Tmax / half-life: male, Beagle
How it was run: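 Male beagle dogs (9-17 kg), fasted, received a single oral tablet with 100-300 mg SNAC and 3-4 mg test substance, groups of 6-8.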

human GLP-1 receptor = human GLP-1 receptor (Homo sapiens, UniProt P43220); experiment: In vitro functional potency, CRE luciferase reporter, whole BHK cells (hGLP-1R); type: cell-based; parameters: expressed in transfected cells; host or cells: BHK (parent line BHKTS13), clone BHK CRE luc2P hGLP-1R; conditions: BHK CRE luc2P hGLP-1R cells
How it was run: as §1

[2] = 0% HSA, read-out: hGIPR, CRE Luc 0% HSA EC50
[3] = hGIPR, CRE Luc 1% HSA EC50, 1% HSA
[4] = 0% HSA, read-out: hGLP-1R, CRE Luc 0% HSA EC50
[5] = hGLP-1R, CRE Luc 1% HSA EC50, 1% HSA

Sequence of human GLP-1 receptor (P43220 24-463): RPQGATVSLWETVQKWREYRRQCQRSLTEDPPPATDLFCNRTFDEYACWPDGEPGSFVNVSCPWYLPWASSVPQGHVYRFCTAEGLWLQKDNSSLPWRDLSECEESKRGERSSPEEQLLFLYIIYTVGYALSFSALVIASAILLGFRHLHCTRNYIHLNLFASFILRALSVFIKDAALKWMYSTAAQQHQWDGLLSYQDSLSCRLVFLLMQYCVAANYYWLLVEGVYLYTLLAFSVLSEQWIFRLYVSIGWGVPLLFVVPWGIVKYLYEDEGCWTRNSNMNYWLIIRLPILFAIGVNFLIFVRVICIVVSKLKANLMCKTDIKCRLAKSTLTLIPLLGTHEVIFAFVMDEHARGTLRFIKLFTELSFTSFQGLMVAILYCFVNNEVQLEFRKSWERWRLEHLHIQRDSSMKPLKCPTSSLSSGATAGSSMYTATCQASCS

| SMILES | EC50 (human GIP receptor; [2]) | EC50 (human GIP receptor; [3]) | AUC/Dose [1] | Cmax/Dose [1] | Tmax [1] | half-life [1] | EC50 (human GLP-1 receptor; [4]) | EC50 (human GLP-1 receptor; [5]) |
| --- | --- | --- | --- | --- | --- | --- | --- | --- |
| CC[C@H](C)[C@H](NC(=O)[C@H](Cc1ccccc1)NC(=O)[C@H](CCC(=O)O)NC(=O)[C@H](Cc1c[nH]cn1)NC(=O)[C@H](C)NC(=O)[C@H](C)NC(=O)[C@H](CCC(N)=O)NC(=O)[C@H](CCCCNC(=O)[C@@H](N)CCCCNC(=O)[C@@H](N)CCCCNC(=O)CC[C@H](NC(=O)CCCCCCCCCCCCCCCCC(=O)O)C(=O)O)NC(=O)[C@H](CCC(=O)O)NC(=O)[C@H](CC(C)C)NC(=O)[C@H](CC(C)C)NC(=O)[C@@H](NC(=O)[C@H](CO)NC(=O)[C@H](Cc1ccc(O)cc1)NC(=O)[C@H](CC(=O)O)NC(=O)[C@H](CO)NC(=O)[C@@H](NC(=O)[C@H](Cc1ccccc1)NC(=O)[C@@H](NC(=O)CNC(=O)[C@H](CCC(=O)O)NC(=O)C(C)(C)NC(=O)[C@@H](N)Cc1ccc(O)cc1)[C@@H](C)O)[C@@H](C)O)[C@@H](C)CC)C(=O)N[C@@H](CCC(=O)O)C(=O)N[C@@H](Cc1c[nH]c2ccccc12)C(=O)N[C@@H](CC(C)C)C(=O)N[C@@H](CC(C)C)C(=O)N[C@@H](C)C(=O)NCC(=O)NCC(=O)N1CCC[C@H]1C(=O)N[C@@H](CO)C(=O)N[C@@H](CO)C(=O)NCC(=O)N[C@@H](C)C(=O)N1CCC[C@H]1C(=O)N1CCC[C@H]1C(=O)N1CCC[C@H]1C(=O)N[C@@H](CO)C(=O)O [Compound 30] (H-Y[Aib]EGTFTSDYSILLEK([εLys-εLys-γGlu-C18 diacid])QAAHEFIEWLLAGGPSSGAPPPS-OH) | 0.0032 nM | 0.185 nM | 6.5 kg·h/L | 0.24 kg/L | 0.8 h | 3.38 days | 0.0073 nM | 0.267 nM |
| CC[C@H](C)[C@H](NC(=O)[C@H](Cc1ccccc1)NC(=O)[C@H](CCC(=O)O)NC(=O)[C@H](CCCNC(=N)N)NC(=O)[C@H](C)NC(=O)[C@H](C)NC(=O)[C@H](CCC(N)=O)NC(=O)[C@H](CCC(=O)O)NC(=O)[C@H](CCC(=O)O)NC(=O)[C@H](CC(C)C)NC(=O)[C@H](CC(C)C)NC(=O)[C@H](CCCCNC(=O)[C@@H](N)CCCCNC(=O)[C@@H](N)CCCCNC(=O)CC[C@H](NC(=O)CCCCCCCCCCCCCCCCC(=O)O)C(=O)O)NC(=O)[C@H](CO)NC(=O)[C@H](Cc1ccc(O)cc1)NC(=O)[C@H](CC(=O)O)NC(=O)[C@H](CO)NC(=O)[C@@H](NC(=O)[C@H](Cc1ccccc1)NC(=O)[C@@H](NC(=O)CNC(=O)[C@H](CCC(=O)O)NC(=O)C(C)(C)NC(=O)[C@@H](N)Cc1ccc(O)cc1)[C@@H](C)O)[C@@H](C)O)C(=O)N[C@@H](CCC(=O)O)C(=O)N[C@@H](Cc1c[nH]c2ccccc12)C(=O)N[C@@H](CC(C)C)C(=O)N[C@@H](CC(C)C)C(=O)N[C@@H](C)C(=O)NCC(=O)NCC(=O)N1CCC[C@H]1C(=O)N[C@@H](CO)C(=O)N[C@@H](CO)C(=O)NCC(=O)N[C@@H](C)C(=O)N1CCC[C@H]1C(=O)N1CCC[C@H]1C(=O)N1CCC[C@H]1C(=O)N[C@@H](CO)C(=O)O [Compound 40] | 0.0095 nM | 0.501 nM | 27.0 kg·h/L | 0.48 kg/L | 2 h | 2.54 days | 0.0064 nM | 0.334 nM |
| CC[C@H](C)[C@H](NC(=O)[C@H](Cc1ccccc1)NC(=O)[C@H](CCC(=O)O)NC(=O)[C@H](CCC(N)=O)NC(=O)[C@H](C)NC(=O)[C@H](C)NC(=O)[C@H](CCC(N)=O)NC(=O)[C@H](CCCCNC(=O)[C@@H](N)CCCCNC(=O)[C@@H](N)CCCCNC(=O)CC[C@H](NC(=O)CCCCCCCCCCCCCCCCC(=O)O)C(=O)O)NC(=O)[C@H](CCC(=O)O)NC(=O)[C@H](CC(C)C)NC(=O)[C@H](CC(C)C)NC(=O)[C@@H](NC(=O)[C@H](CO)NC(=O)[C@H](Cc1ccc(O)cc1)NC(=O)[C@H](CC(=O)O)NC(=O)[C@H](CO)NC(=O)[C@@H](NC(=O)[C@H](Cc1ccccc1)NC(=O)[C@@H](NC(=O)CNC(=O)[C@H](CCC(=O)O)NC(=O)C(C)(C)NC(=O)[C@@H](N)Cc1ccc(O)cc1)[C@@H](C)O)[C@@H](C)O)[C@@H](C)CC)C(=O)N[C@@H](CC(N)=O)C(=O)N[C@@H](Cc1c[nH]c2ccccc12)C(=O)N[C@@H](CC(C)C)C(=O)N[C@@H](CC(C)C)C(=O)N[C@@H](C)C(=O)NCC(=O)NCC(=O)N1CCC[C@H]1C(=O)N[C@@H](CO)C(=O)N[C@@H](CO)C(=O)NCC(=O)N[C@@H](C)C(=O)N1CCC[C@H]1C(=O)N1CCC[C@H]1C(=O)N1CCC[C@H]1C(=O)N[C@@H](CO)C(=O)O [Compound 24] (H-Y[Aib]EGTFTSDYSILLEK([εLys-εLys-γGlu-C18 diacid])QAAQEFINWLLAGGPSSGAPPPS-OH) | 0.0039 nM | 0.115 nM | 16.4 kg·h/L | 0.29 kg/L | 1.8 h | 3.08 days | 0.0121 nM | 0.49 nM |
| CC[C@H](C)[C@H](NC(=O)[C@H](Cc1ccccc1)NC(=O)[C@H](CCC(=O)O)NC(=O)[C@H](CCCNC(=N)N)NC(=O)[C@H](C)NC(=O)[C@H](C)NC(=O)[C@H](CCC(N)=O)NC(=O)[C@H](CCCCNC(=O)COCCOCCNC(=O)COCCOCCNC(=O)CC[C@H](NC(=O)CCCCCCCCCCCCCCCCC(=O)O)C(=O)O)NC(=O)[C@H](CCC(=O)O)NC(=O)[C@H](CC(C)C)NC(=O)[C@H](CC(C)C)NC(=O)[C@@H](NC(=O)[C@H](CO)NC(=O)[C@H](Cc1ccc(O)cc1)NC(=O)[C@H](CC(=O)O)NC(=O)[C@H](CO)NC(=O)[C@@H](NC(=O)[C@H](Cc1ccccc1)NC(=O)[C@@H](NC(=O)CNC(=O)[C@H](CCC(=O)O)NC(=O)C(C)(C)NC(=O)[C@@H](N)Cc1ccc(O)cc1)[C@@H](C)O)[C@@H](C)O)[C@@H](C)CC)C(=O)N[C@@H](CCC(=O)O)C(=O)N[C@@H](Cc1c[nH]c2ccccc12)C(=O)N[C@@H](CC(C)C)C(=O)N[C@@H](CC(C)C)C(=O)N[C@@H](C)C(=O)NCC(=O)NCC(=O)N1CCC[C@H]1C(=O)N[C@@H](CO)C(=O)N[C@@H](CO)C(=O)NCC(=O)N[C@@H](C)C(=O)N1CCC[C@H]1C(=O)N1CCC[C@H]1C(=O)N1CCC[C@H]1C(=O)N[C@@H](CO)C(=O)O [Compound 32] (H-Y[Aib]EGTFTSDYSILLEK([AEEA-AEEA-γGlu-C18 diacid])QAAREFIEWLLAGGPSSGAPPPS-OH) | 0.0071 nM | 0.679 nM | 25.3* kg * h/L | 0.45* kg/L | 1.8 h | 3.33 days | 0.005 nM | 0.982 nM |
